Source: patent US6479478B1, “Carbapenem compounds” (Wyeth Lederle Japan, Ltd., priority 1998, dated 2002)
Values after ≈ are worked out from the molar mass of the structure shown.

Legend:
Assay in all cases: Antibacterial test, agar plate dilution method (MIC)
Assay type in all cases: cell-based
S. typhi 901 = settings: Salmonella enterica, 18 h
Experimental: (§1) The antibacterial activities were tested by an agar plate dilution method in accordance with the standard method of The Japanese Chemotherapy Society [Chemotherapy, Vol.29, 76-79(1981)]. A Mulluer-Hinton (MH) agar liquid medium of a test microorganism was cultured overnight at 37° C. and the resultant culture medium was diluted with a buffered saline gelatin (BSG) solution to contain approximately 10^6 cells of the test microorganisms per milliliter, and then the diluted solution was inoculated with a micro-planter at the rate of approximately 5 μl on a MH agar medium containing a test compound. This medium was then incubated at 37° C. for 18 hours. The minimum inhibitory concentration (MIC) is determined as a minimum concentration in which no test microorganism could grow.
(§2) It is noted here that the test organisms used were all standard strains, and test compounds were Compound (8) and (15) obtained in Examples mentioned later.

K. pneumoniae PCI-602 = settings: Klebsiella pneumoniae, PCI602, MH agar, 37° C., 18 hours
Experimental: as §1, §2

E. coli NIHJ JC-2 = settings: Escherichia coli, NIHJJC2, MH agar, 37° C., 18 hours
Experimental: as §1, §2

P. mirabilis IFO 3849 = settings: Proteus mirabilis, IFO3849, MH agar, 37° C., 18 hours
Experimental: as §1, §2

P. vulgalis HX-19 = settings: MH agar, 37° C., 18 hours
Experimental: as §1, §2

B. subtilis ATCC 6633 = settings: Bacillus subtilis, ATCC6633, MH agar, 37° C., 18 hours
Experimental: as §1, §2

S. enteritridis G14 = settings: MH agar, 37° C., 18 hours
Experimental: as §1, §2

P. rettgeri IFO 3850 = settings: Providencia rettgeri, IFO3850, MH agar, 37° C., 18 hours
Experimental: as §1, §2

S. aureus MS 353 = settings: Staphylococcus aureus, MS353, MH agar, 37° C., 18 hours
Experimental: as §1, §2

P. aeruginosa PAO 1 = settings: Pseudomonas aeruginosa, PAO1, MH agar, 37° C., 18 hours
Experimental: as §1, §2

P. aeruginosa NCTC 10490 = settings: Pseudomonas aeruginosa, NCTC10490, MH agar, 37° C., 18 hours
Experimental: as §1, §2

E. cloacae 963 = settings: Enterobacter cloacae, MH agar, 37° C., 18 hours
Experimental: as §1, §2

S. paratyphi 1015 = settings: Salmonella enterica, MH agar, 37° C., 18 hours
Experimental: as §1, §2

S. aureus FDA 209 JC-1 = settings: Staphylococcus aureus, FDA209, MH agar, 37° C., 18 hours
Experimental: as §1, §2

S. pyogenes Cook = settings: Streptococcus pyogenes, MH agar, 37° C., 18 hours
Experimental: as §1, §2

S. aureus Terajima = settings: Staphylococcus aureus, MH agar, 37° C., 18 hours
Experimental: as §1, §2

M. luteus ATCC 9341 = settings: Micrococcus luteus, ATCC9341, MH agar, 37° C., 18 hours
Experimental: as §1, §2

E. coli K-12 C600 = settings: Escherichia coli, K12C600, MH agar, 37° C., 18 hours
Experimental: as §1, §2

S. schottmuelleri 8006 = settings: MH agar, 37° C., 18 hours
Experimental: as §1, §2

S. typhimurium 11D971 = settings: Salmonella enterica, MH agar, 37° C., 18 hours
Experimental: as §1, §2

E. aerogenes ATCC 13048 = settings: Klebsiella aerogenes, ATCC13048, MH agar, 37° C., 18 hours
Experimental: as §1, §2

M. morganii IFO 3848 = settings: Morganella morganii, IFO3848, MH agar, 37° C., 18 hours
Experimental: as §1, §2

P. vulgaris OX-19 = settings: Proteus vulgaris, OX19, MH agar, 37° C., 18 hours
Experimental: as §1, §2

P. aeruginosa IFO 3445 = settings: Pseudomonas aeruginosa, IFO3445, MH agar, 37° C., 18 hours
Experimental: as §1, §2

Row | SMILES | MIC (S. typhi 901) | MIC (K. pneumoniae PCI-602) | MIC (E. coli NIHJ JC-2) | MIC (P. mirabilis IFO 3849) | MIC (P. vulgalis HX-19) | MIC (B. subtilis ATCC 6633) | MIC (S. enteritridis G14) | MIC (P. rettgeri IFO 3850) | MIC (S. aureus MS 353) | MIC (P. aeruginosa PAO 1) | MIC (P. aeruginosa NCTC 10490) | MIC (E. cloacae 963) | MIC (S. paratyphi 1015) | MIC (S. aureus FDA 209 JC-1) | MIC (S. pyogenes Cook) | MIC (S. aureus Terajima) | MIC (M. luteus ATCC 9341) | MIC (E. coli K-12 C600) | MIC (S. schottmuelleri 8006) | MIC (S. typhimurium 11D971) | other results
1 | C[C@@H](O)[C@H]1C(=O)N2C(C(=O)O)=C(SC3CN(C4=NCCN4C)C3)[C@H](C)[C@H]12 [Compound (8), (1R,5S,6S)-2-[1-(1-methy-2-imidazolin-2-yl)azetidin-3-yl]-thio-6-[(R)-1-hydroxyethyl]-1-methylcarbapen-2-em-3-carbolic acid] | 0.025 µg/mL (≈ 0.0657 µM) | 0.1 µg/mL (≈ 0.263 µM) | 0.025 µg/mL (≈ 0.0657 µM) | 0.78 µg/mL (≈ 2.05 µM) | 0.39 µg/mL (≈ 1.03 µM) | 0.025 µg/mL (≈ 0.0657 µM) | 0.2 µg/mL (≈ 0.526 µM) | 0.05 µg/mL (≈ 0.131 µM) | 0.013 µg/mL (≈ 0.0342 µM) | 12.5 µg/mL (≈ 32.9 µM) | 12.5 µg/mL (≈ 32.9 µM) | 0.1 µg/mL (≈ 0.263 µM) | 0.1 µg/mL (≈ 0.263 µM) | 0.025 µg/mL (≈ 0.0657 µM) | ≤ 0.006 µg/mL | 0.013 µg/mL (≈ 0.0342 µM) | 0.025 µg/mL (≈ 0.0657 µM) | 0.1 µg/mL (≈ 0.263 µM) | 0.1 µg/mL (≈ 0.263 µM) | 0.05 µg/mL (≈ 0.131 µM) | MIC (E. aerogenes ATCC 13048): 0.1 µg/mL (≈ 0.263 µM); MIC (M. morganii IFO 3848): 0.2 µg/mL (≈ 0.526 µM); MIC (P. vulgaris OX-19): 0.2 µg/mL (≈ 0.526 µM); MIC (P. aeruginosa IFO 3445): 3.13 µg/mL (≈ 8.23 µM)
2 | C[C@@H](O)[C@H]1C(=O)N2C(C(=O)O)=C(SC3CN(C4=NCCN4)C3)[C@H](C)[C@H]12 [Compound (15), (1R,5S,6S)-2-[1-(1,3-imidazolin-2-yl)azetidin-3-yl]thio-6-[(R)-1-hydroxyethyl]-1-methylcarbapen-2-em-3-carbolic acid] | 0.025 µg/mL (≈ 0.0682 µM) | 0.05 µg/mL (≈ 0.136 µM) | 0.025 µg/mL (≈ 0.0682 µM) | 0.78 µg/mL (≈ 2.13 µM) | 0.78 µg/mL (≈ 2.13 µM) | 0.025 µg/mL (≈ 0.0682 µM) | 1.56 µg/mL (≈ 4.26 µM) | 0.025 µg/mL (≈ 0.0682 µM) | 0.013 µg/mL (≈ 0.0355 µM) | 3.13 µg/mL (≈ 8.54 µM) | 1.56 µg/mL (≈ 4.26 µM) | 0.05 µg/mL (≈ 0.136 µM) | 0.1 µg/mL (≈ 0.273 µM) | 0.025 µg/mL (≈ 0.0682 µM) | ≤ 0.006 µg/mL | ≤ 0.006 µg/mL | 0.05 µg/mL (≈ 0.136 µM) | 0.2 µg/mL (≈ 0.546 µM) | 0.1 µg/mL (≈ 0.273 µM) | 0.05 µg/mL (≈ 0.136 µM) | MIC (E. aerogenes ATCC 13048): 0.1 µg/mL (≈ 0.273 µM); MIC (M. morganii IFO 3848): 1.56 µg/mL (≈ 4.26 µM); MIC (P. vulgaris OX-19): 0.78 µg/mL (≈ 2.13 µM); MIC (P. aeruginosa IFO 3445): 1.56 µg/mL (≈ 4.26 µM)
